Test results reported in patent publication US8148391B2 (Cephalon, Inc., priority 2006, dated 2012).
Like-named read-outs stand apart in the source and are kept apart here. One block for each molecule: values may come before it.

Key:
[1] = molecular target: T1, c-Met (cytoplasmic domain) (Homo sapiens, UniProt P08581); test: c-Met Kinase Assay (same methods as for ALK, with modifications); type: biochemical
T1 construct: 10 ng/mL c-Met (cytoplasmic domain, Invitrogen Corporation #PV3143); purchased Invitrogen Corporation PV3143
T1 sequence (P08581 956-1390 limits assumed): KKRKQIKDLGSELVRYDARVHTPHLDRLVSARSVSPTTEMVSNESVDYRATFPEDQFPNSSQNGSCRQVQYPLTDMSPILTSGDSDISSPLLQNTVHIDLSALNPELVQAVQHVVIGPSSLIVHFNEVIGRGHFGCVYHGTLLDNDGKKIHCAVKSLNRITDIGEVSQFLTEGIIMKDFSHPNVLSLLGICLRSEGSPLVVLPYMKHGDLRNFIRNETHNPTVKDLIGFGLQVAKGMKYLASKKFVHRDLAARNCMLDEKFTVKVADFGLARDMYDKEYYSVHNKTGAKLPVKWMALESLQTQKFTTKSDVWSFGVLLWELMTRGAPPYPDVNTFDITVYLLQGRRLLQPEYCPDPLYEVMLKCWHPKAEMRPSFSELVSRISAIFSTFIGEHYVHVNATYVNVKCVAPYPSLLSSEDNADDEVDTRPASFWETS
In short: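 IC50 values were fitted by variable-slope sigmoidal regression of percent inhibition against log compound concentration. Phosphorylation was read with Eu-N1 PT66 antibody after a 15 min, 37 °C reaction. The reaction was initiated with 10 ng/mL c-Met cytoplasmic domain on wells coated with 10 μg/mL PLC-γ in TBS.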

[2] = molecular target: T2, baculovirus-expressed ALK (Homo sapiens, UniProt Q9UM73); test: ALK Kinase Assay (ELISA-type, time-resolved fluorescence); type: biochemical
T2 construct: host or cells: baculovirus expression system
T2 sequence (Q9UM73 19-1620): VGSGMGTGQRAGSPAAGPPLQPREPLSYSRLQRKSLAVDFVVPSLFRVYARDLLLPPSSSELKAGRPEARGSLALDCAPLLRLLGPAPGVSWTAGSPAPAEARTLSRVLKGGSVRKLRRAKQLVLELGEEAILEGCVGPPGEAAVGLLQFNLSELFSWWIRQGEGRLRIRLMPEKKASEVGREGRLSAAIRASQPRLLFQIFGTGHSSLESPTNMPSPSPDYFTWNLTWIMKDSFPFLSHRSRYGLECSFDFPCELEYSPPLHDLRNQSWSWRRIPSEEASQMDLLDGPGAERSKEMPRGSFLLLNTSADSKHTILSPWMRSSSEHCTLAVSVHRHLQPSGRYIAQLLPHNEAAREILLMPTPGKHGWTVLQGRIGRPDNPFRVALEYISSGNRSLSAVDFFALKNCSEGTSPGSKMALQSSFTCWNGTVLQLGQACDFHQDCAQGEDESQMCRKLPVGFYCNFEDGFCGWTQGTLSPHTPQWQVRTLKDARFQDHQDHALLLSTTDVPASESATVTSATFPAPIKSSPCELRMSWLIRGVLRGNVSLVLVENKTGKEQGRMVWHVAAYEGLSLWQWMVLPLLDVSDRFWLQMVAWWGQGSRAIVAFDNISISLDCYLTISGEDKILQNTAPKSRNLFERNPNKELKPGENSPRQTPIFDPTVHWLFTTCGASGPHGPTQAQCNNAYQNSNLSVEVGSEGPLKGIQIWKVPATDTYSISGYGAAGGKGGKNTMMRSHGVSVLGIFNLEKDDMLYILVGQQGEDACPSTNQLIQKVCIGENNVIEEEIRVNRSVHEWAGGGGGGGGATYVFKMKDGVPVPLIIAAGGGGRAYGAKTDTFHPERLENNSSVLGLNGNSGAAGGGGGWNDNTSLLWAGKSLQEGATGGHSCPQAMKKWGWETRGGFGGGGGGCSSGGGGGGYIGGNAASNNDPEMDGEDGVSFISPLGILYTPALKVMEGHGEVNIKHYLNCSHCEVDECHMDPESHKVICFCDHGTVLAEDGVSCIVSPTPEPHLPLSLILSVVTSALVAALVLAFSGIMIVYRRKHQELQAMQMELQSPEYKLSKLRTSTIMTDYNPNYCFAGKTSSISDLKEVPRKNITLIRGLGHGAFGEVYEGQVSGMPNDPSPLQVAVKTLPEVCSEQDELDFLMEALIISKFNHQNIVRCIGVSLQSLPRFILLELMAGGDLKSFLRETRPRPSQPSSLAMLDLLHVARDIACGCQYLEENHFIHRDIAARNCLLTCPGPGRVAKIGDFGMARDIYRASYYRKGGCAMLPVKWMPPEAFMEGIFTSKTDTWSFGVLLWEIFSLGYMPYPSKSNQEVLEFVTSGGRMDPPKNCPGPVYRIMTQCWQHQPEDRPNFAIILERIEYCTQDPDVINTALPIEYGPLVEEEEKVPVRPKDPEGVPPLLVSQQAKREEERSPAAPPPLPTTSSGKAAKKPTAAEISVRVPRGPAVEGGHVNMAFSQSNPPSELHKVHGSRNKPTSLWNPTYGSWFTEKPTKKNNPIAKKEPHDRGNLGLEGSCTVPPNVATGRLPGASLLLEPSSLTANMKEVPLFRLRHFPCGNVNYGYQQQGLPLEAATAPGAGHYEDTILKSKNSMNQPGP
In short: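 Wells were coated with phospholipase C-γ at 10 μg/mL in Tris-buffered saline. Adding 30 ng/ml enzyme started the reaction, which ran at 37° C for 15 minutes before Eu-N1 PT66 antibody detection. Percent inhibition versus log10 concentration gave IC50 by variable-slope fit.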

[3] = 1 μM ATP (Km level), 10 ng/mL c-Met, read-out: cMet Activity (c-Met kinase inhibition, IC50 class)
[4] = 1 μM ATP (Km level), 30 ng/ml ALK, 37° C., 15 minutes, read-out: ALK Activity (ALK kinase inhibition, IC50 class)
[5] = c-Met kinase inhibition, 1 μM ATP (Km level), read-out: cMet Activity
[6] = ALK kinase inhibition, 1 μM ATP (Km level), read-out: ALK Activity
[7] = c-Met kinase inhibition, 1 μM ATP, read-out: cMet Activity
[8] = ALK kinase inhibition, 1 μM ATP, read-out: ALK Activity
[9] = 1 μM ATP (Km level), read-out: cMet Activity (c-Met Kinase Inhibition, IC50)
[10] = 1 μM ATP (Km level), read-out: ALK Activity (ALK Kinase Inhibition, IC50)

Structure (SMILES): COc1cc2c(cc1Nc1ncc(Cl)c(Nc3ccccc3S(=O)(=O)N(C)C)n1)CCN(CCS(C)(=O)=O)CC2 [Example 1152, 2-{5-Chloro-2-[3-(2-methanesulfonyl-ethyl)-8-methoxy-2,3,4,5-tetrahydro-1H-benzo[d]azepin-7-ylamino]-pyrimidin-4-ylamino}-N,N-dimethyl-benzenesulfonamide]
- IC50 [1, 3]: 1000 to 10000 nM
- IC50 [2, 4]: < 100 nM

Structure (SMILES): CCN1C2CCC1c1c(ccc(Nc3ncc(Cl)c(N[C@@H]4CCCC[C@H]4NS(C)(=O)=O)n3)c1OC)C2 (stereo partly drawn) [Example 93, N-{(1R,2R)-2-[5-Chloro-2-(12-ethyl-3-methoxy-12-aza-tricyclo[7.2.1.0*2,7*]dodeca-2(7),3,5-trien-4-ylamino)-pyrimidin-4-ylamino]-cyclohexyl}-methanesulfonamide]
- IC50 [1, 5]: > 10000 nM
- IC50 [2, 6]: > 10000 nM

Structure (SMILES): COc1cc2c(cc1Nc1ncc(Cl)c(Nc3ccc[nH]c3=O)n1)CCN(CC(=O)N(C)C)CC2 [Example 1186, 2-{7-[5-Chloro-4-(2-oxo-1,2-dihydro-pyridin-3-ylamino)-pyrimidin-2-ylamino]-8-methoxy-1,2,4,5-tetrahydro-benzo[d]azepin-3-yl}-N,N-dimethyl-acetamide]
- IC50 [1, 3]: > 10000 nM
- IC50 [2, 4]: < 100 nM

Structure (SMILES): CNC(=O)c1ccc(Nc2nc(Nc3cc4c(cc3OC)CCN(CC(=O)N(C)C)CC4)ncc2Cl)c(OC)c1 [Example 1176, 4-[5-Chloro-2-(3-dimethylcarbamoylmethyl-8-methoxy-2,3,4,5-tetrahydro-1H-benzo[d]azepin-7-ylamino)-pyrimidin-4-ylamino]-3-methoxy-N-methyl-benzamide]
- IC50 [1, 3]: > 10000 nM
- IC50 [2, 4]: < 100 nM

Structure (SMILES): COc1cc2c(cc1Nc1ncc(Cl)c(N[C@@H]3CCCC[C@H]3NS(C)(=O)=O)n1)NC(=O)CN(C(=O)C(F)(F)F)C2(C)C [Example 1463, N-((1R,2R)-2-{5-Chloro-2-[7-methoxy-5,5-dimethyl-2-oxo-4-(2,2,2-trifluoro-acetyl)-2,3,4,5-tetrahydro-1H-benzo[e][1,4]diazepin-8-ylamino]-pyrimidin-4-ylamino}-cyclohexyl)-methanesulfonamide]
- IC50 [1, 7]: > 10000 nM
- IC50 [2, 8]: < 100 nM

Structure (SMILES): CCNC(=O)c1ccccc1Nc1nc(Nc2cc3c(cc2OC)CCN(CC(F)F)CC3)ncc1Cl [Example 767, 2-{5-Chloro-2-[3-(2,2-difluoro-ethyl)-8-methoxy-2,3,4,5-tetrahydro-1H-benzo[d]azepin-7-ylamino]-pyrimidin-4-ylamino}-N-ethyl-benzamide]
- IC50 [1, 9]: > 10000 nM
- IC50 [2, 10]: < 100 nM

Structure (SMILES): CN1CCN(C2CCN(C3CCc4ccc(Nc5ncc(Cl)c(Nc6c(F)cccc6OCC#N)n5)cc4CC3)CC2)CC1 (stereo not shown) [Example 1483, [2-(5-Chloro-2-{7-[4-(4-methyl-piperazin-1-yl)-piperidin-1-yl]-6,7,8,9-tetrahydro-5H-benzocyclohepten-2-ylamino}-pyrimidin-4-ylamino)-3-fluoro-phenoxy]-acetonitrile]
- IC50 [1, 7]: < 100 nM
- IC50 [2, 8]: < 100 nM

Structure (SMILES): COc1cc2c(cc1Nc1ncc(Cl)c(N[C@@H]3CCCC[C@H]3NS(C)(=O)=O)n1)CCN(C(=O)CN(C)C)CC2 [Example 1125, N-((1R,2R)-2-{5-Chloro-2-[3-(2-dimethylamino-acetyl)-8-methoxy-2,3,4,5-tetrahydro-1H-benzo[d]azepin-7-ylamino]-pyrimidin-4-ylamino}-cyclohexyl)-methanesulfonamide]
- IC50 [1, 3]: > 10000 nM
- IC50 [2, 4]: < 100 nM

Structure (SMILES): COc1cc(N2CCOCC2)ccc1Nc1nc(Nc2ccc3c(c2OC)CCC(N2CCCC(O)C2)CC3)ncc1Cl (mixture of isomers) [Example 913, 1-{2-[5-Chloro-4-(2-methoxy-4-morpholin-4-yl-phenylamino)-pyrimidin-2-ylamino]-1-methoxy-6,7,8,9-tetrahydro-5H-benzocyclohepten-7-yl}-piperidin-3-ol]
- IC50 [1, 9]: > 10000 nM
- IC50 [2, 10]: < 100 nM

Structure (SMILES): COc1c(Nc2ncc(Cl)c(Nc3ccccc3S(=O)(=O)N(C)C)n2)ccc2c1CCC(NCC(F)F)CC2 (stereo not shown) [Example 683, 2-{5-Chloro-2-[7-(2,2-difluoro-ethylamino)-1-methoxy-6,7,8,9-tetrahydro-5H-benzocyclohepten-2-ylamino]-pyrimidin-4-ylamino}-N,N-dimethyl-benzenesulfonamide]
- IC50 [1, 9]: > 10000 nM
- IC50 [2, 10]: < 100 nM

Structure (SMILES): COCCN1CCOc2ccc(Nc3ncc(Cl)c(N[C@@H]4CCCC[C@H]4NS(C)(=O)=O)n3)cc2C1 [Example 711, N-((1R,2R)-2-{5-Chloro-2-[4-(2-methoxy-ethyl)-2,3,4,5-tetrahydro-benzo[f][1,4]oxazepin-7-ylamino]-pyrimidin-4-ylamino}-cyclohexyl)methanesulfonamide]
- IC50 [1, 9]: 100 to 1000 nM
- IC50 [2, 10]: < 100 nM

Structure (SMILES): CN1CCCCc2cc(Nc3ncc(Cl)c(N[C@@H]4CCCC[C@H]4NS(C)(=O)=O)n3)ccc21 [Example 104, N-{(1R,2R)-2-[5-Chloro-2-(1-methyl-2,3,4,5-tetrahydro-1H-benzo[b]azepin-7-ylamino)-pyrimidin-4-ylamino]-cyclohexyl}-methanesulfonamide]
- IC50 [1, 5]: 100 to 1000 nM
- IC50 [2, 6]: < 100 nM

Structure (SMILES): CCN1CC(=O)N(C)c2cc(Nc3ncc(Cl)c(N[C@H]4[C@@H](C(N)=O)[C@@H]5C=C[C@H]4C5)n3)c(OC)cc2C1 [Example 741]
- IC50 [1, 9]: > 10000 nM
- IC50 [2, 10]: < 100 nM

Structure (SMILES): CN1C(=O)CCC(C)(C)c2cc(Nc3ncc(Cl)c(N[C@H]4[C@@H](C(N)=O)[C@@H]5C=C[C@H]4C5)n3)ccc21 [Example 1571, (1S,2S,3R,4R)-3-[5-Chloro-2-(1,5,5-trimethyl-2-oxo-2,3,4,5-tetrahydro-1H-benzo[b]azepin-7-ylamino)-pyrimidin-4-ylamino]-bicyclo[2.2.1]hept-5-ene-2-carboxylic acid amide]
- IC50 [1, 7]: 100 to 1000 nM
- IC50 [2, 8]: < 100 nM

Other lines, results leading:

- IC50 [1, 5]: < 100 nM
- IC50 [2, 6]: < 100 nM
Structure (SMILES): CCN1CCc2ccc(Nc3ncc(Cl)c(Nc4ccccc4C(=O)NC)n3)cc2CC1 [Example 31, 2-[5-Chloro-2-(3-ethyl-2,3,4,5-tetrahydro-1H-benzo[d]azepin-7-ylamino)-pyrimidin-4-ylamino]-N-methyl-benzamide]

- IC50 [1, 3]: > 10000 nM
- IC50 [2, 4]: 100 to 1000 nM
Structure (SMILES): CCN1C(=O)CCCc2c1ccc(Nc1ncc(Cl)c(Nc3ccc(N(C)C)cc3OC)n1)c2OC [Example 1339, 7-[5-Chloro-4-(4-dimethylamino-2-methoxy-phenylamino)-pyrimidin-2-ylamino]-1-ethyl-6-methoxy-1,3,4,5-tetrahydro-benzo[b]azepin-2-one]

- IC50 [1, 3]: 100 to 1000 nM
- IC50 [2, 4]: 100 to 1000 nM
Structure (SMILES): CCN1C(=O)CCCc2ccc(Nc3ncc(Cl)c(Nc4cccc(CCC#N)c4)n3)cc21 [Example 1223, 3-{3-[5-Chloro-2-(1-ethyl-2-oxo-2,3,4,5-tetrahydro-1H-1-benzazepin-8-ylamino)-pyrimidin-4-ylamino]-phenyl}-propionitrile]

- IC50 [1, 3]: > 10000 nM
- IC50 [2, 4]: 100 to 1000 nM
Structure (SMILES): CCN1C(=O)CCCc2cc(Nc3ncc(Cl)c(Nc4ccccc4OC)n3)c(OC)cc21 [Example 1318, 7-[5-Chloro-4-(2-methoxy-phenylamino)-pyrimidin-2-ylamino]-1-ethyl-8-methoxy-1,3,4,5-tetrahydro-benzo[b]azepin-2-one]

- IC50 [1, 9]: 1000 to 10000 nM
- IC50 [2, 10]: < 100 nM
Structure (SMILES): CC1(C)CCC(=O)Nc2ccc(Nc3ncc(Cl)c(Nc4ccc(N5CCOCC5)cc4-n4cccn4)n3)cc21 [Example 627, 7-[5-Chloro-4-(4-morpholin-4-yl-2-pyrazol-1-yl-phenylamino)-pyrimidin-2-ylamino]-5,5-dimethyl-1,3,4,5-tetrahydro-benzo[b]azepin-2-one]

- IC50 [1, 7]: 100 to 1000 nM
- IC50 [2, 8]: 1000 to 10000 nM
Structure (SMILES): CNC(=O)c1cccc(F)c1Nc1nc(Nc2ccc3c(c2)NC(=O)C(NCCOC)CC3)ncc1Cl (stereo not shown) [Example 1495, 2-{5-Chloro-2-[3-(2-methoxy-ethylamino)-2-oxo-2,3,4,5-tetrahydro-1H-benzo[b]azepin-8-ylamino]-pyrimidin-4-ylamino}-3-fluoro-N-methyl-benzamide]

- IC50 [1, 3]: 1000 to 10000 nM
- IC50 [2, 4]: < 100 nM
Structure (SMILES): CNC(=O)c1ccc(N)cc1Nc1nc(Nc2ccc3c(c2)C(C)(C)CCC(=O)N3)ncc1Cl [Example 1239, 4-Amino-2-[5-chloro-2-(5,5-dimethyl-2-oxo-2,3,4,5-tetrahydro-1H-1-benzazepin-7-ylamino)-pyrimidin-4-ylamino]-N-methyl-benzamide]

- IC50 [1, 9]: 100 to 1000 nM
- IC50 [2, 10]: < 100 nM
Structure (SMILES): COc1ccc(Nc2nc(Nc3ccc4c(c3)CCN(CC3COCCO3)CC4)ncc2Cl)c(-n2cccn2)c1 (stereo not shown) [Example 642, 5-Chloro-N*2*-(3-[1,4]dioxan-2-ylmethyl-2,3,4,5-tetrahydro-1H-benzo[d]azepin-7-yl)-N*4*-(4-methoxy-2-pyrazol-1-yl-phenyl)-pyrimidine-2,4-diamine]

- IC50 [1, 7]: 1000 to 10000 nM
- IC50 [2, 8]: 100 to 1000 nM
Structure (SMILES): CNC(=O)c1ccc2c(c1Nc1nc(Nc3ccc4c(c3)CCCC(=O)N4C)ncc1Cl)OCO2 [Example 1479, 4-[5-Chloro-2-(1-methyl-2-oxo-2,3,4,5-tetrahydro-1H-benzo[b]azepin-7-ylamino)-pyrimidin-4-ylamino]-benzo[1,3]dioxole-5-carboxylic acid methyl amide]
